These molecules were tested on Leptochloa chinensis (assay: Post-emergence test experiment (Table 3, 1000 g/ha)). Conditions: post-emergence spray, after 3 weeks, fresh weight inhibition.
Assay type: in vivo
Method in brief: (§1)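 Activity graded levels 0-5 by fresh-weight inhibition (level 5 above 85%, level 0 below 5%), assessed 3 weeks after treatment. Plants grown in greenhouse pots were sprayed post-emergence at 2-3 leaves using acetone/tween-80 solutions with methyl oleate synergist (1.5 L/ha).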

SMILES | Activity level (growth inhibition rate) Leptochloa chinensis
CSC(=O)C(C)Oc1nc(F)c(Cl)c(NCc2ccccc2)c1Cl (stereo not drawn) [Compound 132] | 5 (Level 5: the growth inhibition rate is greater than 85%)
CCOCSC(=O)C(C)Oc1nc(F)c(Cl)c(N)c1Cl (stereo not drawn) [Compound 86] | 5 (Level 5: the growth inhibition rate is greater than 85%)
CC(C)CCCCCSC(=O)C(C)Oc1nc(F)c(Cl)c(N)c1Cl (stereo not drawn) [Compound 136] | 5 (Level 5: the growth inhibition rate is greater than 85%)
CC(Oc1nc(F)c(Cl)c(N)c1Cl)C(=O)Sc1cccc(Cl)c1 (stereo not drawn) [Compound 110] | 5 (Level 5: the growth inhibition rate is greater than 85%)
CC(Oc1nc(F)c(Cl)c(N)c1Cl)C(=O)SC1CCC1 (stereo not drawn) [Compound 124] | 5 (Level 5: the growth inhibition rate is greater than 85%)
CC(Oc1nc(F)c(Cl)c(N)c1Cl)C(=O)SCC(F)(F)F (stereo not drawn) [Compound 78] | 5 (Level 5: the growth inhibition rate is greater than 85%)
CSC(=O)C(C)Oc1nc(F)c(Cl)c(N)c1C1CC1 (stereo not drawn) [Compound 22] | 5 (Level 5: the growth inhibition rate is greater than 85%)
CSC(=O)C(C)Oc1nc(C(F)(F)F)c(F)c(N)c1C(C)C (stereo not drawn) [Compound 11] | 5 (Level 5: the growth inhibition rate is greater than 85%)
C=CCSC(=O)C(C)Oc1nc(F)c(Cl)c(N)c1Cl (stereo not drawn) [Compound 89] | 5 (Level 5: the growth inhibition rate is greater than 85%)
CCC(C)CCSC(=O)C(C)Oc1nc(F)c(Cl)c(N)c1Cl (stereo not drawn) [Compound 153] | 5 (Level 5: the growth inhibition rate is greater than 85%)
CC(Oc1nc(F)c(Cl)c(N)c1Cl)C(=O)SC/C=C/Cl (stereo not drawn) [Compound 91] | 5 (Level 5: the growth inhibition rate is greater than 85%)
CCCCC(CC)CSC(=O)C(C)Oc1nc(C)c(C)c(N)c1C (stereo not drawn) [Compound 19] | 5 (Level 5: the growth inhibition rate is greater than 85%)
CCCCCSC(=O)C(C)Oc1nc(F)c(Cl)c(N)c1Cl (stereo not drawn) [Compound 71] | 5 (Level 5: the growth inhibition rate is greater than 85%)

What follows are molecules tested on Monochoria vaginalis in the same assay as above. Conditions: post-emergence spray, after 3 weeks, fresh weight inhibition.
Assay type: in vivo
Method in brief: as §1

SMILES | Activity level (growth inhibition rate) Monochoria Vaginalis
CSC(=O)C(C)Oc1nc(F)c(Cl)c(NCc2ccccc2)c1Cl (stereo not drawn) [Compound 132] | 5 (Level 5: the growth inhibition rate is greater than 85%)
CCOCSC(=O)C(C)Oc1nc(F)c(Cl)c(N)c1Cl (stereo not drawn) [Compound 86] | 5 (Level 5: the growth inhibition rate is greater than 85%)
CC(C)CCCCCSC(=O)C(C)Oc1nc(F)c(Cl)c(N)c1Cl (stereo not drawn) [Compound 136] | 5 (Level 5: the growth inhibition rate is greater than 85%)
CC(Oc1nc(F)c(Cl)c(N)c1Cl)C(=O)Sc1cccc(Cl)c1 (stereo not drawn) [Compound 110] | 5 (Level 5: the growth inhibition rate is greater than 85%)
CC(Oc1nc(F)c(Cl)c(N)c1Cl)C(=O)SC1CCC1 (stereo not drawn) [Compound 124] | 5 (Level 5: the growth inhibition rate is greater than 85%)
CC(Oc1nc(F)c(Cl)c(N)c1Cl)C(=O)SCC(F)(F)F (stereo not drawn) [Compound 78] | 5 (Level 5: the growth inhibition rate is greater than 85%)
CSC(=O)C(C)Oc1nc(F)c(Cl)c(N)c1C1CC1 (stereo not drawn) [Compound 22] | 5 (Level 5: the growth inhibition rate is greater than 85%)
CSC(=O)C(C)Oc1nc(C(F)(F)F)c(F)c(N)c1C(C)C (stereo not drawn) [Compound 11] | 5 (Level 5: the growth inhibition rate is greater than 85%)
C=CCSC(=O)C(C)Oc1nc(F)c(Cl)c(N)c1Cl (stereo not drawn) [Compound 89] | 5 (Level 5: the growth inhibition rate is greater than 85%)
CCC(C)CCSC(=O)C(C)Oc1nc(F)c(Cl)c(N)c1Cl (stereo not drawn) [Compound 153] | 5 (Level 5: the growth inhibition rate is greater than 85%)
CC(Oc1nc(F)c(Cl)c(N)c1Cl)C(=O)SC/C=C/Cl (stereo not drawn) [Compound 91] | 5 (Level 5: the growth inhibition rate is greater than 85%)
CCCCC(CC)CSC(=O)C(C)Oc1nc(C)c(C)c(N)c1C (stereo not drawn) [Compound 19] | 5 (Level 5: the growth inhibition rate is greater than 85%)
CCCCCSC(=O)C(C)Oc1nc(F)c(Cl)c(N)c1Cl (stereo not drawn) [Compound 71] | 5 (Level 5: the growth inhibition rate is greater than 85%)

The molecules below were run on Abutilon theophrasti in the same assay as above. Conditions: post-emergence spray, after 3 weeks, fresh weight inhibition.
Assay type: in vivo
Method in brief: as §1

SMILES | Activity level (growth inhibition rate) Abutilon theophrasti
CSC(=O)C(C)Oc1nc(F)c(Cl)c(NCc2ccccc2)c1Cl (stereo not drawn) [Compound 132] | 5 (Level 5: the growth inhibition rate is greater than 85%)
CCOCSC(=O)C(C)Oc1nc(F)c(Cl)c(N)c1Cl (stereo not drawn) [Compound 86] | 5 (Level 5: the growth inhibition rate is greater than 85%)
CC(C)CCCCCSC(=O)C(C)Oc1nc(F)c(Cl)c(N)c1Cl (stereo not drawn) [Compound 136] | 5 (Level 5: the growth inhibition rate is greater than 85%)
CC(Oc1nc(F)c(Cl)c(N)c1Cl)C(=O)Sc1cccc(Cl)c1 (stereo not drawn) [Compound 110] | 5 (Level 5: the growth inhibition rate is greater than 85%)
CC(Oc1nc(F)c(Cl)c(N)c1Cl)C(=O)SC1CCC1 (stereo not drawn) [Compound 124] | 5 (Level 5: the growth inhibition rate is greater than 85%)
CC(Oc1nc(F)c(Cl)c(N)c1Cl)C(=O)SCC(F)(F)F (stereo not drawn) [Compound 78] | 5 (Level 5: the growth inhibition rate is greater than 85%)
CSC(=O)C(C)Oc1nc(F)c(Cl)c(N)c1C1CC1 (stereo not drawn) [Compound 22] | 5 (Level 5: the growth inhibition rate is greater than 85%)
CSC(=O)C(C)Oc1nc(C(F)(F)F)c(F)c(N)c1C(C)C (stereo not drawn) [Compound 11] | 5 (Level 5: the growth inhibition rate is greater than 85%)
C=CCSC(=O)C(C)Oc1nc(F)c(Cl)c(N)c1Cl (stereo not drawn) [Compound 89] | 5 (Level 5: the growth inhibition rate is greater than 85%)
CCC(C)CCSC(=O)C(C)Oc1nc(F)c(Cl)c(N)c1Cl (stereo not drawn) [Compound 153] | 5 (Level 5: the growth inhibition rate is greater than 85%)
CC(Oc1nc(F)c(Cl)c(N)c1Cl)C(=O)SC/C=C/Cl (stereo not drawn) [Compound 91] | 5 (Level 5: the growth inhibition rate is greater than 85%)
CCCCC(CC)CSC(=O)C(C)Oc1nc(C)c(C)c(N)c1C (stereo not drawn) [Compound 19] | 5 (Level 5: the growth inhibition rate is greater than 85%)
CCCCCSC(=O)C(C)Oc1nc(F)c(Cl)c(N)c1Cl (stereo not drawn) [Compound 71] | 5 (Level 5: the growth inhibition rate is greater than 85%)

What follows are molecules tested on Digitaria sanguinalis in the same assay as above. Conditions: post-emergence spray, after 3 weeks, fresh weight inhibition.
Assay type: in vivo
Method in brief: as §1

SMILES | Activity level (growth inhibition rate) Digitaria sanguinalis
CSC(=O)C(C)Oc1nc(F)c(Cl)c(NCc2ccccc2)c1Cl (stereo not drawn) [Compound 132] | 5 (Level 5: the growth inhibition rate is greater than 85%)
CCOCSC(=O)C(C)Oc1nc(F)c(Cl)c(N)c1Cl (stereo not drawn) [Compound 86] | 5 (Level 5: the growth inhibition rate is greater than 85%)
CC(C)CCCCCSC(=O)C(C)Oc1nc(F)c(Cl)c(N)c1Cl (stereo not drawn) [Compound 136] | 5 (Level 5: the growth inhibition rate is greater than 85%)
CC(Oc1nc(F)c(Cl)c(N)c1Cl)C(=O)Sc1cccc(Cl)c1 (stereo not drawn) [Compound 110] | 5 (Level 5: the growth inhibition rate is greater than 85%)
CC(Oc1nc(F)c(Cl)c(N)c1Cl)C(=O)SC1CCC1 (stereo not drawn) [Compound 124] | 5 (Level 5: the growth inhibition rate is greater than 85%)
CC(Oc1nc(F)c(Cl)c(N)c1Cl)C(=O)SCC(F)(F)F (stereo not drawn) [Compound 78] | 5 (Level 5: the growth inhibition rate is greater than 85%)
CSC(=O)C(C)Oc1nc(F)c(Cl)c(N)c1C1CC1 (stereo not drawn) [Compound 22] | 5 (Level 5: the growth inhibition rate is greater than 85%)
CSC(=O)C(C)Oc1nc(C(F)(F)F)c(F)c(N)c1C(C)C (stereo not drawn) [Compound 11] | 5 (Level 5: the growth inhibition rate is greater than 85%)
C=CCSC(=O)C(C)Oc1nc(F)c(Cl)c(N)c1Cl (stereo not drawn) [Compound 89] | 5 (Level 5: the growth inhibition rate is greater than 85%)
CCC(C)CCSC(=O)C(C)Oc1nc(F)c(Cl)c(N)c1Cl (stereo not drawn) [Compound 153] | 5 (Level 5: the growth inhibition rate is greater than 85%)
CC(Oc1nc(F)c(Cl)c(N)c1Cl)C(=O)SC/C=C/Cl (stereo not drawn) [Compound 91] | 5 (Level 5: the growth inhibition rate is greater than 85%)
CCCCC(CC)CSC(=O)C(C)Oc1nc(C)c(C)c(N)c1C (stereo not drawn) [Compound 19] | 5 (Level 5: the growth inhibition rate is greater than 85%)
CCCCCSC(=O)C(C)Oc1nc(F)c(Cl)c(N)c1Cl (stereo not drawn) [Compound 71] | 5 (Level 5: the growth inhibition rate is greater than 85%)

The molecules below were run on Setaria viridis in the same assay as above. Conditions: post-emergence spray, after 3 weeks, fresh weight inhibition.
Assay type: in vivo
Method in brief: as §1

SMILES | Activity level (growth inhibition rate) Setaria viridis
CSC(=O)C(C)Oc1nc(F)c(Cl)c(NCc2ccccc2)c1Cl (stereo not drawn) [Compound 132] | 5 (Level 5: the growth inhibition rate is greater than 85%)
CCOCSC(=O)C(C)Oc1nc(F)c(Cl)c(N)c1Cl (stereo not drawn) [Compound 86] | 5 (Level 5: the growth inhibition rate is greater than 85%)
CC(C)CCCCCSC(=O)C(C)Oc1nc(F)c(Cl)c(N)c1Cl (stereo not drawn) [Compound 136] | 5 (Level 5: the growth inhibition rate is greater than 85%)
CC(Oc1nc(F)c(Cl)c(N)c1Cl)C(=O)Sc1cccc(Cl)c1 (stereo not drawn) [Compound 110] | 5 (Level 5: the growth inhibition rate is greater than 85%)
CC(Oc1nc(F)c(Cl)c(N)c1Cl)C(=O)SC1CCC1 (stereo not drawn) [Compound 124] | 5 (Level 5: the growth inhibition rate is greater than 85%)
CC(Oc1nc(F)c(Cl)c(N)c1Cl)C(=O)SCC(F)(F)F (stereo not drawn) [Compound 78] | 5 (Level 5: the growth inhibition rate is greater than 85%)
CSC(=O)C(C)Oc1nc(F)c(Cl)c(N)c1C1CC1 (stereo not drawn) [Compound 22] | 5 (Level 5: the growth inhibition rate is greater than 85%)
CSC(=O)C(C)Oc1nc(C(F)(F)F)c(F)c(N)c1C(C)C (stereo not drawn) [Compound 11] | 5 (Level 5: the growth inhibition rate is greater than 85%)
C=CCSC(=O)C(C)Oc1nc(F)c(Cl)c(N)c1Cl (stereo not drawn) [Compound 89] | 5 (Level 5: the growth inhibition rate is greater than 85%)
CCC(C)CCSC(=O)C(C)Oc1nc(F)c(Cl)c(N)c1Cl (stereo not drawn) [Compound 153] | 5 (Level 5: the growth inhibition rate is greater than 85%)
CC(Oc1nc(F)c(Cl)c(N)c1Cl)C(=O)SC/C=C/Cl (stereo not drawn) [Compound 91] | 5 (Level 5: the growth inhibition rate is greater than 85%)
CCCCC(CC)CSC(=O)C(C)Oc1nc(C)c(C)c(N)c1C (stereo not drawn) [Compound 19] | 5 (Level 5: the growth inhibition rate is greater than 85%)
CCCCCSC(=O)C(C)Oc1nc(F)c(Cl)c(N)c1Cl (stereo not drawn) [Compound 71] | 5 (Level 5: the growth inhibition rate is greater than 85%)

These molecules were tested on Galium spurium in the same assay as above. Conditions: post-emergence spray, after 3 weeks, fresh weight inhibition.
Assay type: in vivo
Method in brief: as §1

SMILES | Activity level (growth inhibition rate) Galium spurium
CSC(=O)C(C)Oc1nc(F)c(Cl)c(NCc2ccccc2)c1Cl (stereo not drawn) [Compound 132] | 5 (Level 5: the growth inhibition rate is greater than 85%)
CCOCSC(=O)C(C)Oc1nc(F)c(Cl)c(N)c1Cl (stereo not drawn) [Compound 86] | 5 (Level 5: the growth inhibition rate is greater than 85%)
CC(C)CCCCCSC(=O)C(C)Oc1nc(F)c(Cl)c(N)c1Cl (stereo not drawn) [Compound 136] | 5 (Level 5: the growth inhibition rate is greater than 85%)
CC(Oc1nc(F)c(Cl)c(N)c1Cl)C(=O)Sc1cccc(Cl)c1 (stereo not drawn) [Compound 110] | 5 (Level 5: the growth inhibition rate is greater than 85%)
CC(Oc1nc(F)c(Cl)c(N)c1Cl)C(=O)SC1CCC1 (stereo not drawn) [Compound 124] | 5 (Level 5: the growth inhibition rate is greater than 85%)
CC(Oc1nc(F)c(Cl)c(N)c1Cl)C(=O)SCC(F)(F)F (stereo not drawn) [Compound 78] | 5 (Level 5: the growth inhibition rate is greater than 85%)
CSC(=O)C(C)Oc1nc(F)c(Cl)c(N)c1C1CC1 (stereo not drawn) [Compound 22] | 5 (Level 5: the growth inhibition rate is greater than 85%)
CSC(=O)C(C)Oc1nc(C(F)(F)F)c(F)c(N)c1C(C)C (stereo not drawn) [Compound 11] | 5 (Level 5: the growth inhibition rate is greater than 85%)
C=CCSC(=O)C(C)Oc1nc(F)c(Cl)c(N)c1Cl (stereo not drawn) [Compound 89] | 5 (Level 5: the growth inhibition rate is greater than 85%)
CCC(C)CCSC(=O)C(C)Oc1nc(F)c(Cl)c(N)c1Cl (stereo not drawn) [Compound 153] | 5 (Level 5: the growth inhibition rate is greater than 85%)
CC(Oc1nc(F)c(Cl)c(N)c1Cl)C(=O)SC/C=C/Cl (stereo not drawn) [Compound 91] | 5 (Level 5: the growth inhibition rate is greater than 85%)
CCCCC(CC)CSC(=O)C(C)Oc1nc(C)c(C)c(N)c1C (stereo not drawn) [Compound 19] | 5 (Level 5: the growth inhibition rate is greater than 85%)
CCCCCSC(=O)C(C)Oc1nc(F)c(Cl)c(N)c1Cl (stereo not drawn) [Compound 71] | 5 (Level 5: the growth inhibition rate is greater than 85%)

— patent US12391648B2, “Pyridyloxy thioester derivative and preparation method therefor, herbicidal composition, and application” (Qingdao Kingagroot Chemical Compound Co., Ltd., priority 2018, dated 2025)
